Structures are written as SMILES.

The target in this assay is Metabotropic glutamate receptor 5 (Rattus norvegicus, UniProt P31424). The assay can be described thus: Positive allosteric modulation of rat mGlu5 receptor expressed in HEK293A cells assessed as increase in glutamate induced-calcium mobilization preincubated for 2.3 mins followed by glutamate addition measured for 1.9 mins by Fluo-4 AM dye based fluorescence assay. Background: Calcium flux is commonly read through the fluorescence of an indicator in the cells.
Sequence of Metabotropic glutamate receptor 5 (P31424 whole entry): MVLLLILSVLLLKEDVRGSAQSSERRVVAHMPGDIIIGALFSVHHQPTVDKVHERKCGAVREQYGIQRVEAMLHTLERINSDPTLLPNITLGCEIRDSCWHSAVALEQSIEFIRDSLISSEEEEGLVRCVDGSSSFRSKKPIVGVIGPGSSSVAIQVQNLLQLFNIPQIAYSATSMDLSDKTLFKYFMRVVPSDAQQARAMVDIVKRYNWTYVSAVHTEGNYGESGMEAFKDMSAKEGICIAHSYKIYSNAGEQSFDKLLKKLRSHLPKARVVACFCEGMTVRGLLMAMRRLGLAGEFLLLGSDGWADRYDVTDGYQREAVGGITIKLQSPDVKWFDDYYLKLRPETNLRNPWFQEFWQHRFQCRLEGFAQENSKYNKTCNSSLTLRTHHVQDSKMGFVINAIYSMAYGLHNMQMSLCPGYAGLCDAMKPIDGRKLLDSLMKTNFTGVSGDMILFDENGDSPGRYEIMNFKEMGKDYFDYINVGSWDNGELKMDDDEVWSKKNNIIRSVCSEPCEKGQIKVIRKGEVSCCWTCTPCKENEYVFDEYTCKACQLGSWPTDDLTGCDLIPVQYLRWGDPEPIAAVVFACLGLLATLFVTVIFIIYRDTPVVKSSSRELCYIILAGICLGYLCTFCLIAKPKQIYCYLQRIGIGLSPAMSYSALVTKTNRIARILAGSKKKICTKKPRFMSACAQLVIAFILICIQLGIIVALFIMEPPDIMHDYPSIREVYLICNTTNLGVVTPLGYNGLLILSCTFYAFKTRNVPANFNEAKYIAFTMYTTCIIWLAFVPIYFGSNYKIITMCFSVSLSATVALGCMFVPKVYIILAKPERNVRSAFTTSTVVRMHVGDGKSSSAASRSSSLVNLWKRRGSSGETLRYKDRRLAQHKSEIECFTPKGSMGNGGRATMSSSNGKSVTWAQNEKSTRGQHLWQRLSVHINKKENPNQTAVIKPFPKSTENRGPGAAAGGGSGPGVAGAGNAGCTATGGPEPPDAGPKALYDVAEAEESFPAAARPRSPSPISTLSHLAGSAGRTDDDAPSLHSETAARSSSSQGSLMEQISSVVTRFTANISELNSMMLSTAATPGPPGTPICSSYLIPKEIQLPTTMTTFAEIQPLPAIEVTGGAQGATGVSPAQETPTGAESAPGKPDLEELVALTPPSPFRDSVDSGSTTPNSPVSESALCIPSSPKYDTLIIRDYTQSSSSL

By EC50 is commonly meant the concentration that produces a half-maximal response. For `O=c1nc(OCCOc2ccccc2)ccn1-c1ccc(F)c(F)c1`, the EC50 was found to be 398 nM.

Values taken from BindingDB's records for doi:10.1021/acsmedchemlett.7b00249 (Vanderbilt University School of Medicine, 2017).
